Test results taken from patent US8063018B2, “Bivalent thrombin binding molecules comprising linkers” (National Research Council of Canada, priority 2004, dated 2011).

target: thrombin (Homo sapiens, UniProt P00734); experiment: Fibrinogen clotting assay catalyzed by thrombin; type: biochemical; conditions: IC50, nM (25° C.), 25° C.; concentration needed to double the clotting time
Experimental: Curves represent OD420 time course after the addition of 0.6 nM thrombin in the presence of (♦) 0 nM; (◯) 0.5 nM; (□) 1 nM; (Δ) 1.5 nM; (⋄) 2.5 nM; (●) 3.75 nM; (▪) 6.25 nM; and (▴) […] of the inhibitor with linker (GS)n and n=2 (SEQ. ID. NO. 50) (a); n=4 (SEQ. ID. NO. 51) (b); n=6 (SEQ. ID. NO. 52) (c); n=8 (SEQ. ID. NO. 53) (d); n=10 (SEQ. ID. NO. 54) (e); and in the presence of (♦) 0 nM; (◯) 1 nM; (□) 2 nM; (Δ) 4 nM; (⋄) 6 nM; (●) 10 nM; (▪) 15 nM; and (▴) 25 nM of the inhibitor with linker (GS)n and n=12 (SEQ. ID. NO. 55) (f); n=14 (SEQ. ID. NO. 56) (g), at 37° C. The onset clotting time was determined as an intersection of the baseline and the extrapolated linear portion of the OD change curve. […] Curves (i) represent OD420 time course in the presence of (A) 0 nM; (◯) 1 nM; (□) 2 nM; (Δ) 4 nM; (⋄) 6 nM; and (●) 15 nM of the inhibitor with linker […] (SEQ. ID. NO. 103), at 37° C. […] represent OD420 time course in the presence of (◯) 0 nM; (□) 2 nM; (Δ) 4 nM; (⋄) 6 nM; (●) 8 nM; (▪) 10 nM; (▴) 12 nM; and (♦) 15 nM; of the inhibitor with linker […] (SEQ. ID. NO. 58) at 25° C. Curves (k) represent OD420 time course in the presence of (◯) 0 nM; (□) 0.5 nM; (Δ) 1 nM; (⋄) 2 nM; (●) 3 nM; (▪) 4 nM; (▴) 5 nM; and (♦) 6 nM; of the inhibitor with linker […] (SEQ. ID. NO. 105) at 37° C. Curves (I) represent OD420 time course in the presence of (◯) 0 nM; (□) 0.25 nM; (Δ) 0.5 nM; (⋄) 1 nM; (●) 1.5 nM; (▪) 2 nM; and (▴) 2.5 nM; of the inhibitor with linker […] (SEQ. ID. NO. 104) at 37° C. Curves (m) represent OD420 time course in the presence of (◯) 0 nM; (□) 2 nM; (Δ) 4 nM; (⋄) 6 nM; (●) 8 nM; (▴) 10 nM; and (A) 12 nM; of the inhibitor with linker […] (SEQ. ID. NO. 106) at 37° C. Curves (n) represent OD420 time course in the presence of (◯) 0 nM; (□) 1 nM; (Δ) 2 nM; (⋄) 3 nM; (●) 4 nM; (▪) 5 nM; (▴) 6 nM; and (♦) 7 nM; of the inhibitor with linker […] (SEQ. ID. NO. 107) at 37° C. Curves (o) represent OD420 time course in the presence of (◯) 0 nM; (□) 4 nM; and (Δ) 8 nM; of the inhibitor with linker GQSHNR (SEQ. ID. NO. 108) at 37° C.
Other experimental conditions were as used for the assays described in FIG. 2.
Clotting assays were carried out by use of the protocols described previously (DiMaio and others, 1990, 21698-21703; Witting and others, 1992, 737-743). The assay employs bovine plasma fibrinogen dissolved at 0.1% in 50 mM Tris-Cl, 100 mM NaCl, 0.1% PEG-8000 at pH 7.6 (i.e. the clotting buffer). Each assay mixture contained a certain concentration of the peptide, and the reaction was started by the addition of human thrombin to a final concentration of 0.6-1.2 nM. Optical absorbance increase at 420 nm caused by fibrin clot formation was measured at 25° C. or 37° C. using the Spectramax plate reader. The onset clotting time was determined as an intersection of the baseline and the extrapolated linear portion of the OD change curve. The concentration of a peptide needed to double the clotting time was defined as IC50 (DiMaio and others, 1990, 21698-21703). Kinetic amidolytic curves were obtained in clotting buffer at 25° C. using eight inhibitor concentrations and three to five concentrations of the chromogenic substrate S-2238 (Chromogenix) (DiMaio and others, 1990, 21698-21703). Inhibition constants were extracted from Lineweaver-Burk equation by using weighted linear regression. Errors in Ki determination were estimated by using Monte-Carlo sampling with 1-3% variance of the experimental points.

Row | Structure (SMILES) | IC50 [nM]
1 | CC[C@H](C)[C@H](NC(=O)[C@H](CCC(=O)O)NC(=O)[C@H](CCC(=O)O)NC(=O)[C@H](Cc1ccccc1)NC(=O)[C@H](CC(=O)O)NC(=O)CNC(=O)[C@H](CO)NC(=O)CNC(=O)[C@H](CO)NC(=O)CNC(=O)[C@H](CO)NC(=O)CNC(=O)[C@H](CO)NC(=O)CNC(=O)[C@H](CO)NC(=O)CNC(=O)[C@H](CCCCN)NC(=O)CNC(=O)[C@H](CO)NC(=O)CNC(=O)[C@H](CO)NC(=O)CNC(=O)[C@H](CO)NC(=O)CNC(=O)[C@H](CO)NC(=O)CNC(=O)[C@H]1CCCCN1C(=O)[C@H](CCCNC(=N)N)NS(=O)(=O)c1ccc(C(C)(C)C)cc1)C(=O)N1CCC[C@H]1C(=O)N[C@@H](CCC(=O)O)C(=O)N[C@@H](CCC(=O)O)C(=O)N[C@@H](Cc1ccc(O)cc1)C(=O)N[C@@H](CC(C)C)C(=O)N[C@@H](CCC(N)=O)C(=O)O [P3174] | 1.6 ± 0.9

same assay, conditions: IC50, nM (37° C.), 37° C.; concentration needed to double the clotting time

Row | Structure (SMILES) | IC50 [nM]
2 | CC[C@H](C)[C@H](NC(=O)[C@H](CCC(=O)O)NC(=O)[C@H](CCC(=O)O)NC(=O)[C@H](Cc1ccccc1)NC(=O)[C@H](CC(=O)O)NC(=O)CNC(=O)[C@H](CO)NC(=O)CNC(=O)[C@H](CO)NC(=O)CNC(=O)[C@H](CO)NC(=O)CNC(=O)[C@H](CO)NC(=O)CNC(=O)[C@H](CO)NC(=O)CNC(=O)[C@H](CO)NC(=O)CNC(=O)[C@H](CO)NC(=O)CNC(=O)[C@H](CO)NC(=O)CNC(=O)[C@@H](N)CSSC[C@H](NC(=O)CNC(=O)[C@H]1CCCCN1C(=O)[C@H](CCCNC(=N)N)NS(=O)(=O)c1ccc(C(C)(C)C)cc1)C(=O)O)C(=O)N1CCC[C@H]1C(=O)N[C@@H](CCC(=O)O)C(=O)N[C@@H](CCC(=O)O)C(=O)N[C@@H](Cc1ccc(O)cc1)C(=O)N[C@@H](CC(C)C)C(=O)N[C@@H](CCC(N)=O)C(=O)O [P3172-P3165] | 1.1 ± 0.2
3 | CC[C@H](C)[C@H](NC(=O)[C@H](CCC(=O)O)NC(=O)[C@H](CCC(=O)O)NC(=O)[C@H](Cc1ccccc1)NC(=O)[C@H](CC(=O)O)NC(=O)CNC(=O)[C@H](CC(N)=O)NC(=O)[C@H](CO)NC(=O)[C@@H](NC(=O)[C@H](CCCCN)NC(=O)[C@H](CC(=O)O)NC(=O)[C@@H](NC(=O)[C@@H]1CCCN1C(=O)[C@@H](NC(=O)[C@H](CC(N)=O)NC(=O)[C@H](CC(C)C)NC(=O)[C@H](CC(=O)O)NC(=O)[C@H](CC(C)C)NC(=O)[C@@H](NC(=O)CNC(=O)[C@H]1CCCCN1C(=O)[C@H](CCCNC(=N)N)NS(=O)(=O)c1ccc(C(C)(C)C)cc1)[C@@H](C)O)[C@@H](C)O)C(C)C)[C@@H](C)O)C(=O)N1CCC[C@H]1C(=O)N[C@@H](CCC(=O)O)C(=O)N[C@@H](CCC(=O)O)C(=O)N[C@@H](Cc1ccc(O)cc1)C(=O)N[C@@H](CC(C)C)C(=O)N[C@@H](CCC(N)=O)C(=O)O [P3181] | 1.9 ± 0.2
4 | CC[C@H](C)[C@H](NC(=O)[C@H](CCC(=O)O)NC(=O)[C@H](CCC(=O)O)NC(=O)[C@H](Cc1ccccc1)NC(=O)[C@H](CC(=O)O)NC(=O)CNC(=O)[C@H](CC(=O)O)NC(=O)[C@H](CC(N)=O)NC(=O)[C@H](Cc1c[nH]cn1)NC(=O)[C@H](CC(C)C)NC(=O)[C@H](CCC(N)=O)NC(=O)[C@@H]1CCCN1C(=O)[C@H](CCCNC(=N)N)NC(=O)[C@@H]1CCCN1C(=O)[C@@H](NC(=O)[C@@H](NC(=O)[C@H](CO)NC(=O)CNC(=O)[C@H]1CCCCN1C(=O)[C@H](CCCNC(=N)N)NS(=O)(=O)c1ccc(C(C)(C)C)cc1)C(C)C)C(C)C)C(=O)N1CCC[C@H]1C(=O)N[C@@H](CCC(=O)O)C(=O)N[C@@H](CCC(=O)O)C(=O)N[C@@H](Cc1ccc(O)cc1)C(=O)N[C@@H](CC(C)C)C(=O)N[C@@H](CCC(N)=O)C(=O)O [P3209] | 1.1
5 | CC[C@H](C)[C@H](NC(=O)[C@H](CCC(N)=O)NC(=O)[C@@H]1CCCN1C(=O)[C@H](CCCNC(=N)N)NC(=O)[C@@H]1CCCN1C(=O)[C@H](C)NC(=O)[C@H](Cc1c[nH]cn1)NC(=O)[C@H](CO)NC(=O)CNC(=O)[C@H]1CCCCN1C(=O)[C@H](CCCNC(=N)N)NS(=O)(=O)c1ccc(C(C)(C)C)cc1)C(=O)N[C@@H](Cc1c[nH]cn1)C(=O)N[C@@H](CC(N)=O)C(=O)N[C@@H](CC(=O)O)C(=O)NCC(=O)N[C@@H](CC(=O)O)C(=O)N[C@@H](Cc1ccccc1)C(=O)N[C@@H](CCC(=O)O)C(=O)N[C@@H](CCC(=O)O)C(=O)N[C@H](C(=O)N1CCC[C@H]1C(=O)N[C@@H](CCC(=O)O)C(=O)N[C@@H](CCC(=O)O)C(=O)N[C@@H](Cc1ccc(O)cc1)C(=O)N[C@@H](CC(C)C)C(=O)N[C@@H](CCC(N)=O)C(=O)O)[C@@H](C)CC [P3210] | 0.6
6 | CC[C@H](C)[C@H](NC(=O)[C@H](CCC(=O)O)NC(=O)[C@H](CCC(=O)O)NC(=O)[C@H](Cc1ccccc1)NC(=O)[C@H](CC(=O)O)NC(=O)CNC(=O)[C@@H](NC(=O)[C@H](CC(=O)O)NC(=O)CNC(=O)[C@H](C)NC(=O)[C@H](CCC(N)=O)NC(=O)[C@H](CCCCN)NC(=O)[C@H](C)NC(=O)CNC(=O)CNC(=O)[C@H](CC(C)C)NC(=O)[C@H](Cc1c[nH]cn1)NC(=O)[C@H](Cc1c[nH]cn1)NC(=O)CNC(=O)[C@H]1CCCCN1C(=O)[C@H](CCCNC(=N)N)NS(=O)(=O)c1ccc(C(C)(C)C)cc1)C(C)C)C(=O)N1CCC[C@H]1C(=O)N[C@@H](CCC(=O)O)C(=O)N[C@@H](CCC(=O)O)C(=O)N[C@@H](Cc1ccc(O)cc1)C(=O)N[C@@H](CC(C)C)C(=O)N[C@@H](CCC(N)=O)C(=O)O [P3234] | 3.9 ± 0.8
7 | CC[C@H](C)[C@H](NC(=O)[C@H](CCC(=O)O)NC(=O)[C@H](CCC(=O)O)NC(=O)[C@H](Cc1ccccc1)NC(=O)[C@H](CC(=O)O)NC(=O)CNC(=O)[C@H](CCCNC(=N)N)NC(=O)[C@H](CC(=O)O)NC(=O)[C@H](C)NC(=O)[C@H](CCCNC(=N)N)NC(=O)[C@H](CO)NC(=O)[C@H](CCC(=O)O)NC(=O)[C@H](CCSC)NC(=O)[C@H](Cc1ccc(O)cc1)NC(=O)CNC(=O)[C@H]1CCCCN1C(=O)[C@H](CCCNC(=N)N)NS(=O)(=O)c1ccc(C(C)(C)C)cc1)C(=O)N1CCC[C@H]1C(=O)N[C@@H](CCC(=O)O)C(=O)N[C@@H](CCC(=O)O)C(=O)N[C@@H](Cc1ccc(O)cc1)C(=O)N[C@@H](CC(C)C)C(=O)N[C@@H](CCC(N)=O)C(=O)O [P3236] | 1 ± 0.5
8 | CC[C@H](C)[C@H](NC(=O)[C@H](CCC(=O)O)NC(=O)[C@H](CCC(=O)O)NC(=O)[C@H](Cc1ccccc1)NC(=O)[C@H](CC(=O)O)NC(=O)CNC(=O)[C@H](CCCNC(=N)N)NC(=O)[C@H](CC(N)=O)NC(=O)[C@H](Cc1c[nH]cn1)NC(=O)[C@H](CO)NC(=O)[C@H](CCC(N)=O)NC(=O)CNC(=O)[C@H]1CCCCN1C(=O)[C@H](CCCNC(=N)N)NS(=O)(=O)c1ccc(C(C)(C)C)cc1)C(=O)N1CCC[C@H]1C(=O)N[C@@H](CCC(=O)O)C(=O)N[C@@H](CCC(=O)O)C(=O)N[C@@H](Cc1ccc(O)cc1)C(=O)N[C@@H](CC(C)C)C(=O)N[C@@H](CCC(N)=O)C(=O)O [P3238] | 2 ± 1
